Data from US20100227313A1, “Methods and Compositions for Determining Altered Susceptibility of HIV-1 to Protease Inhibitor Treatment” (priority 2007, published 2010).

Tested on: HIV-1
Test: Resistance test vector (PHENOSENSE) phenotypic susceptibility assay, fold change in IC50, correlated with genotype (Fisher's Exact test, odds ratio)
Format: cell-based, human immunodeficiency virus type 1
Settings: for Odds Ratio: reduced susceptibility (FC>2)
Text: See Petropoulos et al., 2000, Antimicrob. Agents Chemother. 44:920-928; U.S. Pat. Nos. 5,837,464 and 6,242,187. PHENOSENSE™ is a phenotypic assay that achieves the benefits of phenotypic testing and overcomes the drawbacks of previous assays.
PHENOSENSE™ can obtain results with only one round of viral replication, thereby avoiding selection of subpopulations of virus that can occur during preparation of viral stocks required for assays that rely on fully infectious virus.
A resistance test vector (“RTV”) can then be constructed by incorporating the amplified viral gene sequences into a replication defective viral vector by using any method known in the art of incorporating gene sequences into a vector. In one embodiment, restrictions enzymes and conventional cloning methods are used. See Sambrook et al., 2001, Molecular Cloning: A Laboratory Manual, Cold Spring Harbor Laboratory, 3rd ed., NY; and Ausubel et al., 1989, Current Protocols in Molecular Biology, Greene Publishing Associates and Wiley Interscience, NY. In a preferred embodiment, ApaI and PinAI restriction enzymes are used. Preferably, the replication defective viral vector is the indicator gene viral vector (“IGVV”). In a preferred embodiment, the viral vector contains a means for detecting replication of the RTV. Preferably, the viral vector contains a luciferase expression cassette.
The assay can be performed by first co-transfecting host cells with RTV DNA and a plasmid that expresses the envelope proteins of another retrovirus, for example, amphotropic murine leukemia virus (MLV). Following transfection, viral particles can be harvested from the cell culture and used to infect fresh target cells in the presence of varying amounts of anti-viral drug(s). The completion of a single round of viral replication in the fresh target cells can be detected by the means for detecting replication contained in the vector. In a preferred embodiment, the completion of a single round of viral replication results in the production of luciferase. By monitoring the amount of, e.g., luciferase activity in the presence of the varying amounts of antiviral drug(s), a resistance curve can be constructed by plotting luciferase activity versus drug concentration. The susceptibility of an HIV, or population of HIV, can be determined by measuring the concentration of antiviral drug at which the luciferase activity detected is half-maximal. This number, the IC50, provides a standard and convenient measure of drug resistance.
Patient derived segment(s) corresponding to the HIV protease and reverse transcriptase coding regions were amplified by the reverse transcription polymerase chain reaction method (RT PCR) using viral RNA isolated from viral particles present in the plasma or serum of HIV infected individuals as follows. Viral RNA was isolated from the plasma or serum using oligo-dT magnetic beads (Dynal Biotech, Oslo, Norway), followed by washing and elution of viral RNA. The RT PCR protocol was divided into two steps. A retroviral reverse transcriptase (e.g. Moloney MuLV reverse transcriptase (Roche Molecular Systems, Inc., Branchburg, N.J.; Invitrogen, Carlsbad, Calif.), or avian myeloblastosis virus (AMV) reverse transcriptase, (Boehringer Mannheim, Indianapolis, Ind.) was used to copy viral RNA into cDNA. The cDNA was then amplified using a thermostable DNA polymerase (e.g. Taq (Roche Molecular Systems, Inc., Branchburg, N.J.), Tth (Roche Molecular Systems, Inc., Branchburg, N.J.), PRIMEZYME™ (isolated from Thermus brockianus, Biometra, Gottingen, Germany)) or a combination of thermostable polymerases as described for the performance of “long PCR” (Barnes, W.M., 1994, Proc. Natl. Acad. Sci, USA 91, 2216 20) (e.g. Expand High Fidelity PCR System (Taq+Pwo), (Boehringer Mannheim. Indianapolis, Ind.); GENEAMP XL™ PCR kit (Tth+Vent), (Roche Molecular Systems, Inc., Branchburg, N.J.); or […] II®, Clontech, Palo Alto, Calif.)

## CC(C)CN(C[C@@H](O)[C@H](Cc1ccccc1)NC(=O)O[C@H]1CCOC1)S(=O)(=O)c1ccc(N)cc1 [APV, amprenavir]
2862 clinical samples, FC relative to wild-type (NL4-3), FIG. 1
  correlation of FC in susceptibility with the FC in susceptibility for DRV: tightly correlated
Mutation A22V in PR
  Odds Ratio: 4.43
Mutation A71I in PR
  Odds Ratio: 1.93
Mutation A71V in PR
  Odds Ratio: 1.62
Mutation A431I in gag
  Odds Ratio: 21.52
Mutation A431V in gag
  Odds Ratio: 3.21
Mutation C67F in PR
  Odds Ratio: 9.28
Mutation C95F in PR
  Odds Ratio: 4.96
Mutation D60E in PR
  Odds Ratio: 1.51
Mutation E34Q in PR
  Odds Ratio: 4.54
Mutation E35D in PR
  Odds Ratio: 1.27
Mutation E35N in PR
  Odds Ratio: 10.13
Mutation E428D in gag
  Odds Ratio: 1.94
Mutation E467K in gag
  Odds Ratio: 2.39
Mutation E468K in gag
  Odds Ratio: 2.98
Mutation F53L in PR
  Odds Ratio: 4.91
Mutation F53Y in PR
  Odds Ratio: 10.44
Mutation F463S in gag
  Odds Ratio: 7.28
Mutation F463V in gag
  Odds Ratio: 2.29
Mutation F465L in gag
  Odds Ratio: 1.65
Mutation F465S in gag
  Odds Ratio: 2.17
Mutation G16A in PR
  Odds Ratio: 4.49
Mutation G73A in PR
  Odds Ratio: 5.85
Mutation G73C in PR
  Odds Ratio: 2.98
Mutation G73S in PR
  Odds Ratio: 2.69
Mutation G73T in PR
  Odds Ratio: 21.84
Mutation H69R in PR
  Odds Ratio: 3.98
Mutation H441Q in gag
  Odds Ratio: 3.05
Mutation I13V in PR
  Odds Ratio: 1.41
Mutation I47V in PR
  Odds Ratio: 98.74
Mutation I54A in PR
  Odds Ratio: 7.70
Mutation I54L in PR
  Odds Ratio: 8.74
Mutation I54M in PR
  Odds Ratio: 32.44
Mutation I54V in PR
  Odds Ratio: 2.67
Mutation I62V in PR
  Odds Ratio: 1.28
Mutation I66F in PR
  Odds Ratio: 4.19
Mutation I66V in PR
  Odds Ratio: 4.16
Mutation I72L in PR
  Odds Ratio: 3.51
Mutation I72V in PR
  Odds Ratio: 1.51
Mutation I84V in PR
  Odds Ratio: 58.10
Mutation I85V in PR
  Odds Ratio: 3.21
Mutation I437V in gag
  Odds Ratio: 3.51
Mutation I479T in gag
  Odds Ratio: 1.28
Mutation K20R in PR
  Odds Ratio: 2.41
Mutation K20T in PR
  Odds Ratio: 1.55
Mutation K20V in PR
  Odds Ratio: 4.43
Mutation K43T in PR
  Odds Ratio: 7.24
Mutation K55R in PR
  Odds Ratio: 4.17
Mutation L10F in PR
  Odds Ratio: 3.36
Mutation L10I in PR
  Odds Ratio: 1.95
Mutation L10V in PR
  Odds Ratio: 1.62
Mutation L19P in PR
  Odds Ratio: 6.49
Mutation L23I in PR
  Odds Ratio: 4.81
Mutation L24F in PR
  Odds Ratio: 11.71
Mutation L33F in PR
  Odds Ratio: 12.07
Mutation L63P in PR
  Odds Ratio: 1.10
Mutation L89I in PR
  Odds Ratio: 2.71
Mutation L89M in PR
  Odds Ratio: 1.95
Mutation L90M in PR
  Odds Ratio: 1.24
Mutation L449F in gag
  Odds Ratio: 1.46
Mutation L449V in gag
  Odds Ratio: 9.49
Mutation M36I in PR
  Odds Ratio: 1.48
Mutation M36L in PR
  Odds Ratio: 1.98
Mutation M46I in PR
  Odds Ratio: 2.32
Mutation M46L in PR
  Odds Ratio: 2.48
Mutation M423I in gag
  Odds Ratio: 2.07
Mutation N37D in PR
  Odds Ratio: 1.55
Mutation P79A in PR
  Odds Ratio: 18.04
Mutation P79S in PR
  Odds Ratio: 9.49
Mutation P453I in gag
  Odds Ratio: 4.11
Mutation P453V in gag
  Odds Ratio: 9.49
Mutation P459T in gag
  Odds Ratio: 2.53
Mutation Q58E in PR
  Odds Ratio: 4.49
Mutation Q61N in PR
  Odds Ratio: 5.22
Mutation Q92K in PR
  Odds Ratio: 7.78
Mutation R452K in gag
  Odds Ratio: 2.49
Mutation R452S in gag
  Odds Ratio: 2.87
Mutation S451T in gag
  Odds Ratio: 1.85
Mutation S462N in gag
  Odds Ratio: 2.19
Mutation S488A in gag
  Odds Ratio: 1.79
Mutation T4A in PR
  Odds Ratio: 9.49
Mutation T4P in PR
  Odds Ratio: 4.01
Mutation T4S in PR
  Odds Ratio: 8.07
Mutation T12P in PR
  Odds Ratio: 2.37
Mutation T74P in PR
  Odds Ratio: 27.85
Mutation T91S in PR
  Odds Ratio: 11.16
Mutation V11I in PR
  Odds Ratio: 23.10
Mutation V32I in PR
  Odds Ratio: 62.34
Mutation V82A in PR
  Odds Ratio: 1.98
Mutation V82C in PR
  Odds Ratio: 9.18
Mutation V82F in PR
  Odds Ratio: 11.71
Mutation V82I in PR
  Odds Ratio: 2.31
Mutation V82L in PR
  Odds Ratio: 6.33
Mutation V82T in PR
  Odds Ratio: 3.06
